Results: patent publication US11618749B2, “Compounds and compositions for treating conditions associated with STING activity” (IFM Due, Inc., priority 2018, dated 2023)

target: T1, hSTING (Homo sapiens, UniProt Q86WV6, G230A/H232R/R293Q/R71H); test: STING reporter assay (luciferase reporter) in THP1-Dual KO-IFNAR2 cells activated with 2′3′cGAMP; format: cell-based; conditions: 15 μM 2′3′cGAMP, 24 h, luciferase reporter activity
T1 construct: host or cells: THP1-Dual KO-IFNAR2 cells
Protocol: STING pathway activation by the compounds described herein is measured using THP1-Dual™ cells (KO-IFNAR2).
THP1-Dual™ KO-IFNAR2 Cells (obtained from invivogen) are maintained in RPMI, 10% FCS, 5 ml P/S, 2 mM L-glut, 10 mM Hepes, and 1 mM sodium pyruvate. Compounds are spotted in empty 384 well tissue culture plates (Greiner 781182) by Echo for a final concentration of […]. Cells are plated into the TC plates at 40 μL per well, 2×10E6 cells/mL. For activation with STING ligand, 2′3′cGAMP (MW 718.38, obtained from Invivogen), is prepared in Optimem media.
The following solutions are prepared for each 1×384 plate: • Solution A: 2 mL Optimem with one of the following stimuli: • 60 uL of 10 mM 2′3′cGAMP→150 μM stock • Solution B: 2 mL Optimem with 60 μL Lipofectamine 2000→Incubate 5 min at RT
2 mL of solution A and 2 ml Solution B is mixed and incubated for 20 min at room temperature (RT). 20 uL of transfection solution (A+B) is added on top of the plated cells, with a final 2′3′cGAMP concentration of 15 μM. The plates are then centrifuged immediately at 340 g for 1 minute, after which they are incubated at 37° C., 5% CO2, >98% humidity for 24 h. Luciferase reporter activity is then measured. EC50 values were calculated by using standard methods known in the art.
Luciferase Reporter Assay:
10 μL of supernatant from the assay is transferred to white 384-plate with flat bottom and squared wells. one pouch of QUANTI-Luc™ Plus is dissolved in 25 mL of water. 100 μL of QLC Stabilizer per 25 mL of QUANTI-Luc™ Plus solution was added. 50 μL of QUANTI-Luc™ Plus/QLC solution per well is then added. Luminescence is measured on a Platereader (e.g., Spectramax I3X (Molecular Devices GF3637001)).
Luciferase reporter activity is then measured. EC50 values are calculated by using standard methods known in the art.

T1 sequence (Q86WV6 whole entry R71H/G230A/H232R/R293Q): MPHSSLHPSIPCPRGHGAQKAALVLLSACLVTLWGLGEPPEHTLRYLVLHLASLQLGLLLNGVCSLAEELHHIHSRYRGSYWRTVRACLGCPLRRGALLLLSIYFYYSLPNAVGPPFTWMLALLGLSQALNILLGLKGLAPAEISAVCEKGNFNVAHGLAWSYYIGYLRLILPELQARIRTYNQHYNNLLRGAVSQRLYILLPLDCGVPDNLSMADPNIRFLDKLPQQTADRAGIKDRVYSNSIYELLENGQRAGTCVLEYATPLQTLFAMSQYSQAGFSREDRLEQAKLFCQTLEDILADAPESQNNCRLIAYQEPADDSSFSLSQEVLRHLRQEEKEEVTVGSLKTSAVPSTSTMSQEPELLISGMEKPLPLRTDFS

Structure (SMILES)	EC50 [µM]
O=C(Nc1ccc(F)cn1)Nc1c[nH]c2ncc(F)cc12 [Compound 280]	1 to 5
O=C(Nc1c[nH]c2ncc(F)cc12)NC1CCC(C(F)(F)F)CC1 (centres unmarked) [Compound 270]	5 to 100
O=C(Nc1ccc(C(F)(F)F)cc1)Nc1c[nH]c2cccnc12 [Compound 146]	1 to 5
O=C(Nc1ccc(C(F)(F)F)cc1)Nc1c[nH]c2cncc(F)c12 [Compound 164]	5 to 100
Cc1cnc2[nH]cc(NC(=O)Nc3ccc(C(F)(F)F)cc3)c2c1 [Compound 163]	0.2 to 1
CC(C)(O)c1ccc(-c2cnc3[nH]cc(NC(=O)Nc4ccc(C(F)(F)F)cc4)c3c2)cc1 [Compound 209]	1 to 5
O=C(Nc1c[nH]c2cccnc12)NC1CCC(C(F)(F)F)CC1 (centres unmarked) [Compound 141]	5 to 100
CN(C)S(=O)(=O)c1cccc(-c2cnc3[nH]cc(NC(=O)Nc4ccc(C(F)(F)F)cc4)c3c2)c1 [Compound 204]	1 to 5
CCc1cnc2[nH]cc(NC(=O)Nc3ccc(C(F)(F)F)cc3)c2c1 [Compound 268, 3-[5-ethyl-1H-pyrrolo[2,3-b]pyridin-3-yl]-1-[4-(trifluoromethyl)phenyl] urea]	0.2 to 1
CCCCc1ccc(N(C)C(=O)Nc2c[nH]c3ncc(F)cc23)cc1 [Compound 246]	1 to 5
O=S(=O)(Nc1ccc(C(F)(F)F)cc1)Nc1c[nH]c2ncc(F)cc12 [Compound 337]	5 to 100
C#Cc1cnc2[nH]cc(NC(=O)Nc3ccc(C(F)(F)F)cc3)c2c1 [Compound 258, 1-(5-ethynyl-1H-pyrrolo[2,3-b]pyridin-3-yl)-3-(4-(trifluoromethyl)phenyl)urea]	0.2 to 1
O=C(Nc1ccc(C(F)(F)F)cc1)Nc1c[nH]c2ncc(C3CCCCC3)cc12 [Compound 267, 3-[5-cyclohexyl-1H-pyrrolo[2,3-b]pyridin-3-yl]-1-[4-(trifluoromethyl)phenyl] urea]	1 to 5
O=C(Nc1ccc(C2CCCCC2)cn1)Nc1c[nH]c2ccncc12 [Compound 316]	0.2 to 1
CCCCc1cccc(NC(=O)Nc2c[nH]c3ncc(F)cc23)c1 [Compound 274]	0.04 to 0.2
O=C(Nc1ccc(C2CCCCC2)nc1)Nc1c[nH]c2ccncc12 [Compound 315]	1 to 5
O=C(Nc1ccc(C(F)(F)F)c(Cl)c1)Nc1c[nH]c2ncc(F)cc12 [Compound 282]	0.2 to 1
O=C(Nc1ccc(C(F)(F)F)cc1)Nc1c[nH]c2ncc(Br)cc12 [Compound 147]	0.04 to 0.2
O=C(Nc1ccc(C(F)(F)F)cc1)Nc1c[nH]c2cc(F)cnc12 [Compound 330]	1 to 5
O=C(Nc1ccc(C2CCCCC2)nc1)Nc1c[nH]c2ncc(F)cc12 [Compound 272]	0.04 to 0.2

Structure (SMILES)	EC50 [µM]
O=C(Nc1ccc(C2CCC2)c(F)c1)Nc1c[nH]c2ncc(F)cc12 [Compound 250]	0.2 to 1
CC(C)n1cc(-c2ccnc3[nH]cc(NC(=O)Nc4ccc(C(F)(F)F)cc4)c23)cn1 [Compound 186]	5 to 100
CCCCC1CCC(NC(=O)Nc2c[nH]c3cccnc23)CC1 (centres unmarked) [Compound 322]	1 to 5
O=C(Nc1c[nH]c2ncc(F)cc12)NC1CCC2(CC1)CC2 [Compound 305]	1 to 5
CCc1ccc(NC(=O)Nc2c[nH]c3ncc(F)cc23)cc1 [Compound 174]	0.04 to 0.2
CC(c1ccc(-c2ccnc3[nH]cc(NC(=O)Nc4ccc(C(F)(F)F)cc4)c23)cc1)N(C)C (centres unmarked) [Compound 192]	5 to 100
O=C(Nc1ccc(C2CCCCC2)cn1)Nc1c[nH]c2cccnc12 [Compound 326]	0.2 to 1
O=C(Nc1ccc(C(F)(F)F)cc1)Nc1c[nH]c2ncc(-c3cccnc3)cc12 [Compound 210]	1 to 5
CCCCC1CCC(NC(=O)Nc2c[nH]c3ncc(F)cc23)CC1 (centres unmarked) [Compound 273]	0.2 to 1
COc1nccc2[nH]cc(NC(=O)Nc3ccc(C(F)(F)F)cc3)c12 [Compound 320, 1-(4-methoxy-1H-pyrrolo[3,2-c]pyridin-3-yl)-3-(4-(trifluoromethyl)phenyl)urea]	5 to 100
O=C(Nc1ccc(C(F)(F)F)nc1)Nc1c[nH]c2cccnc12 [Compound 156]	5 to 100
O=C(Nc1c[nH]c2cccnc12)N1CCC2(CCCC2)CC1 [Compound 159, N-(1H-pyrrolo[3,2-b]pyridin-3-yl)-8-azaspiro[4.5]decane-8-carboxamide]	5 to 100
O=C(Nc1ccc(C(F)(F)F)cc1)Nc1c[nH]c2ccncc12 [Compound 145]	0.2 to 1
C#Cc1ccc2[nH]cc(NC(=O)Nc3ccc(C(F)(F)F)cc3)c2n1 [Compound 324, 1-(5-ethynyl-1H-pyrrolo[3,2-b]pyridin-3-yl)-3-(4-(trifluoromethyl)phenyl)urea]	5 to 100
CCCCc1ccc(N(CC)C(=O)Nc2c[nH]c3ncc(F)cc23)cc1 [Compound 245]	5 to 100
O=C(Nc1cccc(C(F)(F)F)c1)Nc1c[nH]c2cnccc12 [Compound 149]	5 to 100
C=Cc1cnc2[nH]cc(NC(=O)Nc3ccc(C(F)(F)F)cc3)c2c1 [Compound 276, 3-[5-ethenyl-1H-pyrrolo[2,3-b]pyridin-3-yl]-1-[4-(trifluoromethyl)phenyl] urea]	0.2 to 1
O=C(Nc1cccc(C(F)(F)F)c1)Nc1c[nH]c2cccnc12 [Compound 332]	1 to 5
CCCCC1CCC(NC(=O)Nc2c[nH]c3ccncc23)CC1 (centres unmarked) [Compound 317]	0.2 to 1
CC(NC(=O)Nc1c[nH]c2ncc(F)cc12)c1ccc2c(c1)OCCO2 (centres unmarked) [Compound 279]	5 to 100

More lines, now with the values ahead:

EC50 [µM]	Structure (SMILES)
5 to 100	O=C(Nc1c[nH]c2ncccc12)NC1CCc2ccccc2C1 (centres unmarked) [Compound 136]
1 to 5	O=C(Nc1c[nH]c2ccc(-c3ccccc3)nc12)NC1CCC(C(F)(F)F)CC1 (centres unmarked) [Compound 335]
0.2 to 1	O=C(Nc1cccc(C2CCCCC2)c1)Nc1c[nH]c2ncc(F)cc12 [Compound 271]
5 to 100	O=C(Nc1c[nH]c2cccnc12)NC1CC2CCC(C2)C1 (centres unmarked) [Compound 157]
0.2 to 1	O=C(Nc1ncc(-c2ccccc2)s1)Nc1c[nH]c2ncc(F)cc12 [Compound 293]
1 to 5	O=C(Nc1cccc2c1CCCC2)Nc1c[nH]c2ncc(F)cc12 [Compound 284]
5 to 100	O=C(Nc1c[nH]c2ncccc12)N1CCc2ccccc21 [Compound 303]
1 to 5	O=C(Nc1ccc(C(F)(F)F)cc1)Nc1c[nH]c2ncc(-c3ccccc3)cc12 [Compound 143, 1-(5-phenyl-1H-pyrrolo[2,3-b]pyridin-3-yl)-3-(4-(trifluoromethyl)phenyl)urea]
0.04 to 0.2	O=C(Nc1ccc2c(c1)CCCC2)Nc1c[nH]c2ncc(F)cc12 [Compound 296]
5 to 100	O=C(Nc1c[nH]c2ncccc12)N1CCCC(c2ccccc2)C1 (centres unmarked) [Compound 307]
5 to 100	CCc1ccc(NC(=O)Nc2c[nH]c3ncccc23)nc1 [Compound 169]
5 to 100	O=C(Nc1c[nH]c2ccncc12)NC1CCC(c2ccccc2)CC1 (centres unmarked) [Compound 321]
1 to 5	O=C(Nc1ccc2ccncc2c1)Nc1c[nH]c2ncc(F)cc12 [Compound 287]
5 to 100	O=C(Nc1c[nH]c2ncc(-c3ccccc3)cc12)NC1CCC(C(F)(F)F)CC1 (centres unmarked) [Compound 162, 3-[5-phenyl-1H-pyrrolo[2,3-b]pyridin-3-yl]-1l-[4-(trifluoromethyl)cyclohexyl]urea]
1 to 5	O=C(Nc1ccc(C2CCCCC2)nc1)Nc1c[nH]c2cnccc12 [Compound 312]
5 to 100	O=C(Nc1c[nH]c2ncccc12)N1CCCc2ccccc21 [Compound 301]
5 to 100	O=C(Nc1c[nH]c2ncccc12)NC1CCCC(c2ccccc2)C1 (centres unmarked) [Compound 304]
1 to 5	CCCCC1CCN(C(=O)Nc2c[nH]c3ncccc23)CC1 [Compound 132]
5 to 100	O=C(Nc1c[nH]c2ncccc12)NC1Cc2ccccc2C1 [Compound 302]
0.2 to 1	CCCCC1CCC(NC(=O)Nc2c[nH]c3ncccc23)CC1 (centres unmarked) [Compound 170]
1 to 5	CCCCC1CCC(NC(=O)Nc2c[nH]c3ncccc23)C1 (centres unmarked) [Compound 285]
0.2 to 1	O=C(Nc1ccc(C2CCCCC2)cn1)Nc1c[nH]c2ncccc12 [Compound 264]
5 to 100	O=C(Nc1cc(F)cc(F)c1)Nc1c[nH]c2ncccc12 [Compound 299]
0.2 to 1	O=C(Nc1nc2ccccc2s1)Nc1c[nH]c2ncc(F)cc12 [Compound 292]
5 to 100	O=C(Nc1ccc2cnccc2c1)Nc1c[nH]c2ncc(F)cc12 [Compound 288]
0.2 to 1	O=C(Nc1cccc(C2CCCCC2)c1)Nc1c[nH]c2cccnc12 [Compound 139]
5 to 100	CCc1ccc(CNC(=O)Nc2c[nH]c3ncccc23)cc1 [Compound 171]
0.2 to 1	C#Cc1cccc(NC(=O)Nc2c[nH]c3ncc(F)cc23)c1 [Compound 251]
